Several values for one entry are separate records, joined by “and”; a condition that tells them apart may be missing. Equal values may be shown once.
Experiments:
[1] = Single i.v. bolus pharmacokinetic study in mice: plasma and brain levels by LC-MS/MS; format: in vivo, female C3H/HeN mice; details: mouse; for Plasma product (Ic) concentration: individual animals IV1-IV4
Experimental: Analytical Results Obtained from a Single i.v. Bolus Pharmacokinetic Study in Mice.
Groups of female C3H/HeN mice received the product by an intravenous route as a bolus at a dose level of 40 mg.kg^−1, equivalent to 120 mg.m^−2. Blood and brain samples were obtained from all dosed animals sacrificed at intervals up to 72 hours post dose. Brain and corresponding plasma samples were assayed for product (Ia) content by an LC-MS/MS assay.
2.25 mg.ml^−1 solution containing 5% Polysorbate 80, 5% ethanol, and 90% of an aqueous 5% glucose solution.
Fifty-six female C3H/HeN mice, each weighing ca 20 g, were each administered formulated product II by i.v. bolus via the tail vein at an injection volume of 0.4 ml to give a total dose of 40 mg.kg^−1.
Blood by cardiac puncture, and liver and brain by dissection after CO2 sacrifice.
Whole blood was collected in heparinised tubes, and corresponding plasma samples were obtained by centrifugation, and frozen immediately at −20° C. Tissues were blotted, weighed, and frozen immediately at −20° C. All samples were dispatched frozen for analysis. Upon receipt, samples were stored frozen at approximately −18° C. pending analysis.
LC-MS/MS (Sciex API III plus) in turbo-ionspray mode.
75×4.6 mm Supelcosil ABZ plus (3 μm).
Acetonitrile/methanol/ammonium acetate (10 mM); 40/25/35 v/v/v.
Plasma: Added 100 μl of acetonitrile to sample (50 μl). Vortexed, centrifuged, removed supernatant, added 100 μl of mobile phase and injected 150 μl .
Brain: Added 100 μl of acetonitrile to homogenised sample (100 mg of a 1:1 w/w brain with water homogenate) and vortexed. Added 1 ml of diethyl ether, vortexed, centrifuged, removed organic layer, and dried under N2. Reconstituted in 200 μl of mobile phase and injected 150 μl.
Plasma: Nine at concentrations of 5, 10, 20, 50, 100, 200, 300, 400 & 500 ng.ml^−1 (product Ia). Prepared by adding suitable aliquots of the product (concentrations =0.1, 1 or 10 μg.ml^−1) in ethanol to 0.5 ml aliquots of mouse plasma. Each sample was vortexed following drug addition; a 50 μl aliquot was then removed for assay.
Brain: Eleven at concentrations of 10, 20, 30, 100, 200, 300, 400, 500, 1000, 2500 & 5000 ng.g^−1 in homogenised mouse brain (1:1 w/w brain with water). Prepared by adding suitable aliquots of the product (concentrations=1, 10 or 100 μg.ml-^−1) in ethanol to 0.5, 1, 3 or 4 g of homogenised mouse brain. Each sample was vortexed following drug addition and a 100 mg aliquot was then removed for assay.
A biexponential equation was fitted to the profiles using an interactive linear least-square algorithm as part of the SIPHAR package.

[2] = system: intracranially implanted human glioblastoma U251; experiment: Antitumor activity against intracranially implanted U251 glioblastoma in NCr-nu mice (RP-36); format: in vivo; details: for DAYS OF DEATH: individual animals
Experimental: The treatment schedule of the intracranially implanted U251 glioblastoma cells was iv, once daily, every sixth day for three treatments (q6d×3), beginning on day four post-implant. […] For the intracranially implanted studies, the compounds were evaluated based on their ability to increase the life span of the animals. The positive control used for both of these tumor models was nitrosourea.
The oversight committee was the Southern Research Institutional Animal Care and Use Committee; the protocol used was IACUC No. 96-8-50.
Product (Ia) was prepared in 5% ethanol, 5% tween 80, 90% D5W
Product (Ia) was administered in 0.4 ml/mouse based on a total body weight average.
Nitrosourea was administered 0.1 ml/10 g of body weight.
Any intracranially implanted animal that appeared to be moribund was euthanized for humane purposes. Since efficacy studies fall within this category of basic research, experiment termination was based on resultants that were determined to be optimal.
Six to eight week old athymic NCr-nu female mice were used for the intracranially implanted U251 trials.
The cells were injected into the cerebrum to the right of the midline with a 25 gauge, ⅜ inch, stainless steel needle. Cultured cells were used for the U251 experiment (RP-36). The treatment schedule was q6d×3, iv, beginning on day four, post-implant. […] The treatment schedule was q4d×3, iv, beginning on day two, post-implant. Nitrosourea was given in each experiment for comparative purposes because of its known activity against CNS tumors.

[3] = plasma, i.v. 40 mg.kg^−1, calculated from values ≧b.l.q. of 20 ng.ml^−1
[4] = plasma, i.v. 40 mg.kg^−1, calculated from values ≧l.o.d. of 4 ng.ml^−1
[5] = 13.4 mg/kg/dose IV Q6D×3(4), listed as Product I(a)
[6] = 13.4 mg/kg/dose IV Q6D×3(4), listed as product (Ia)
[7] = 20.0 mg/kg/dose IV Q6D×3(4), listed as Product I(a)
[8] = 20.0 mg/kg/dose IV Q6D×3(4), listed as product (Ia)
[9] = 30.0 mg/kg/dose IV Q6D×3(4), listed as Product I(a)
[10] = 30.0 mg/kg/dose IV Q6D×3(4), listed as product (Ia)

SMILES: CO[C@H]1C(=O)[C@]2(C)[C@@H](OC)C[C@H]3OC[C@@]3(OC(C)=O)[C@H]2[C@H](OC(=O)c2ccccc2)[C@]2(O)C[C@H](OC(=O)[C@H](O)[C@@H](NC(=O)OC(C)(C)C)c3ccccc3)C(C)=C1C2(C)C [Product (Ia), 4α-acetoxy-2α-benzoyloxy-5β, 20-epoxy-1β-hydroxy-7β, 10β-dimethoxy-9-oxo-11-taxen-13α-yl (2R,3S)-3 tert-butoxycarbonylamino-2-hydroxy-3-phenylpropionate]
- AUC0-72h ([1]; brain, i.v. 40 mg.kg^−1): *the corresponding AUC0-72h = 549.7 h.μg.g^−1
- Terminal T½ ([1]; brain, i.v. 40 mg.kg^−1): 31.4 h
- AUC0-∞ ([1]; brain, i.v. 40 mg.kg^−1, mean data, extrapolated from 72 h, listed as product (Ic)): 787.g* h.μg.g^−1
- Mean total plasma clearance ([1]; i.v. 40 mg.kg^−1): 1.3 I.h^−1.kg^−1
- levels in the brain relative to those in the plasma (on the basis of AUC0∞ values) ([1]; i.v. 40 mg.kg^−1): about twenty
- time post dose up to which plasma levels persisted above the limit of accurate quantification (20 ng.ml^−1) ([1]; i.v. 40 mg.kg^−1): up to 14 h
- time post dose up to which plasma levels were consistently above the limit of detection (4 ng.ml^−1) ([1]; i.v. 40 mg.kg^−1): up to 24 h
- Plasma product (Ic) concentration ([1]; i.v. 40 mg.kg^−1, 2 min after dose): 52987 ng/mL and 45942 ng/mL and 49607 ng/mL and 38994 ng/mL
- Plasma product (Ic) concentration, MEAN ([1]; i.v. 40 mg.kg^−1, 2 min after dose, mean of IV1-IV4): 46882 ng/mL
- Plasma product (Ic) concentration ([1]; i.v. 40 mg.kg^−1, 5 min after dose): 36734 ng/mL and 33538 ng/mL and 32077 ng/mL and 34903 ng/mL
- Plasma product (Ic) concentration, MEAN ([1]; i.v. 40 mg.kg^−1, 5 min after dose, mean of IV1-IV4): 34313 ng/mL
- Plasma product (Ic) concentration ([1]; i.v. 40 mg.kg^−1, 15 min after dose): 20493 ng/mL and 20897 ng/mL and 21051 ng/mL and 19459 ng/mL
- Plasma product (Ic) concentration, MEAN ([1]; i.v. 40 mg.kg^−1, 15 min after dose, mean of IV1-IV4): 20475 ng/mL
- Plasma product (Ic) concentration ([1]; i.v. 40 mg.kg^−1, 0.5 h after dose): 10765 ng/mL and 10344 ng/mL and 9170 ng/mL and 11232 ng/mL
- Plasma product (Ic) concentration, MEAN ([1]; i.v. 40 mg.kg^−1, 0.5 h after dose, mean of IV1-IV4): 10378 ng/mL
- Plasma product (Ic) concentration ([1]; i.v. 40 mg.kg^−1, 0.75 h after dose): 7133 ng/mL and 10948 ng/mL and 8121 ng/mL and 10148 ng/mL
- Plasma product (Ic) concentration, MEAN ([1]; i.v. 40 mg.kg^−1, 0.75 h after dose, mean of IV1-IV4): 9087 ng/mL
- Plasma product (Ic) concentration ([1]; i.v. 40 mg.kg^−1, 1 h after dose): 6017 ng/mL and 7423 ng/mL and 6693 ng/mL and 6079 ng/mL
- Plasma product (Ic) concentration, MEAN ([1]; i.v. 40 mg.kg^−1, 1 h after dose, mean of IV1-IV4): 6553 ng/mL
- Plasma product (Ic) concentration ([1]; i.v. 40 mg.kg^−1, 4 h after dose): 1072 ng/mL and 1110 ng/mL and 835 ng/mL and 830 ng/mL
- Plasma product (Ic) concentration, MEAN ([1]; i.v. 40 mg.kg^−1, 4 h after dose, mean of IV1-IV4): 962 ng/mL
- Plasma product (Ic) concentration ([1]; i.v. 40 mg.kg^−1, 6 h after dose): 449 ng/mL and 316 ng/mL and 346 ng/mL and 336 ng/mL
- Plasma product (Ic) concentration, MEAN ([1]; i.v. 40 mg.kg^−1, 6 h after dose, mean of IV1-IV4): 362 ng/mL
- Plasma product (Ic) concentration ([1]; i.v. 40 mg.kg^−1, 8 h after dose): 204 ng/mL and 199 ng/mL and 195 ng/mL and 154 ng/mL
- Plasma product (Ic) concentration, MEAN ([1]; i.v. 40 mg.kg^−1, 8 h after dose, mean of IV1-IV4): 188 ng/mL
- Plasma product (Ic) concentration ([1]; i.v. 40 mg.kg^−1, 14 h after dose): 65 ng/mL and 56 ng/mL and 50 ng/mL and 52 ng/mL
- Plasma product (Ic) concentration, MEAN ([1]; i.v. 40 mg.kg^−1, 14 h after dose, mean of IV1-IV4): 56 ng/mL
- Plasma product (Ic) concentration ([1]; i.v. 40 mg.kg^−1, 24 h after dose, blq = below limit of accurate quantification (20 ng.ml^−1)): ~18(blq) ng.ml^−1 and ~15(blq) ng.ml^−1 (2×) and ~16(blq) ng.ml^−1
- Plasma product (Ic) concentration, MEAN ([1]; i.v. 40 mg.kg^−1, 24 h after dose, mean of IV1-IV4 (all blq)): 16 ng/mL
- Plasma product (Ic) concentration ([1]; i.v. 40 mg.kg^−1, 48 h after dose, n.d. = not detected (≦l.o.d. of 4 ng.ml^−1)): ~4(blq) ng.ml^−1
- Plasma product (Ic) concentration, MEAN ([1]; i.v. 40 mg.kg^−1, 48 h after dose, mean of IV1-IV4 (blq / n.d.)): 2 ng/mL
- brain level, peak ([1]; i.v. 40 mg.kg^−1, at 14 h): 9.1 µg/g
- brain level ([1]; i.v. 40 mg.kg^−1, last sampling time, 72 h): 5.3 µg/g
- plasma level, peak (mean) ([1]; i.v. 40 mg.kg^−1, peak at 2 minutes): 46900 ng/mL
- Plasma product (Ic) concentration ([1]; i.v. 40 mg.kg^−1, time after dose printed as — (between 1 h and 4 h)): 4633 ng/mL and 4337 ng/mL and 4600 ng/mL and 3564 ng/mL
- Plasma product (Ic) concentration, MEAN ([1]; i.v. 40 mg.kg^−1, time after dose printed as — (between 1 h and 4 h), mean of IV1-IV4): 4283 ng/mL
- plasma level ([1]; i.v. 40 mg.kg^−1, within 4 h): less than 1 μg.ml^−1
- penetration of the blood brain barrier ([1]; post-i.v. administration): appeared to readily penetrate the blood brain barrier
- ClT (total plasma clearance) [1, 3]: 1.3 1.h^−1.kg^−1
- Initial T½ [1, 3]: 0.2 h
- Terminal T½ [1, 3]: 2.0 h
- Vdss [1, 3]: 2.4 1.kg^−1
- ClT (total plasma clearance) [1, 4]: 1.3 1.h^−1.kg^−1
- Initial T½ [1, 4]: 0.7 h
- Terminal T½ [1, 4]: 6.2 h
- Vdss [1, 4]: 1.9 1.kg^−1
- MEDIAN DAY OF DEATH ([2]; 13.4 mg/kg/dose IV Q6D×3(4)): 83.0 days
- DAYS OF DEATH ([2]; 13.4 mg/kg/dose IV Q6D×3(4)): 69 day (2×) and 83 day (4×) and 122 day
- 122-DAY SURV./TOTAL [2, 5]: 3/10
- % ILS [2, 5]: +144%
- 122-DAY SURV./TOTAL [2, 6]: three of ten
- % ILS [2, 6]: 144%
- MEDIAN DAY OF DEATH ([2]; 20.0 mg/kg/dose IV Q6D×3(4)): 103.0 days
- DAYS OF DEATH ([2]; 20.0 mg/kg/dose IV Q6D×3(4)): 58 day and 98 day and 100 day and 106 day (2×) and 122 day
- 122-DAY SURV./TOTAL [2, 7]: 4/10
- % ILS [2, 7]: +202%
- 122-DAY SURV./TOTAL [2, 8]: four of ten
- % ILS [2, 8]: 202%
- MEDIAN DAY OF DEATH ([2]; 30.0 mg/kg/dose IV Q6D×3(4)): 94.0 days
- DAYS OF DEATH ([2]; 30.0 mg/kg/dose IV Q6D×3(4)): 21 days and 34 days and 94 days and 98 days and 103 days
- 122-DAY SURV./TOTAL [2, 9]: 5/10
- % ILS [2, 9]: +176%
- 122-DAY SURV./TOTAL [2, 10]: five of ten
- % ILS [2, 10]: 176%
- activity against intracranially implanted U251 glioblastoma ([2]; iv q6d×3): quite active
- MTD ([2]; iv q6d×3, U251 experiment RP-36): 20 mg/kg/dose

From patent US6346543B1, “Use of a taxoid to treat abnormal cell proliferation in the brain” (priority 1998, dated 2002)
